The text below walks through data of patent US20160287536A1, “Composition” (THE UNIVERSITY OF NOTTINGHAM, priority 2013, published 2016).

“And” between values parts separate entries of the source, which are not always exact repeats. Equal values may be shown once. Read-outs that look alike come from different tables or passages of the source.

Format in all cases: cell-based
Assay [1] deals with sheep isolated rectal artery. In words: Wire myography, sheep isolated rectal artery (SRA). The note with it: for spontaneous contraction: sheep isolated rectal vessels, 10 μM. The protocol:
(§1) Sheep mesenteric tissue, from the distal sigmoid colon to the anus, was obtained from a local abattoir. The sheep tissue was delivered in a dry bag and stored at 4° C. until dissected. The bundle of sheep rectal vessels was dissected from its mesentery within four hours of arrival from the abattoir. The vascular bundle was then kept in the pre-oxygenated Krebs-Henseleit buffer solution at 4° C. until used (on the same day as a preferential method or on the following day after storage overnight). No experiments were conducted on tissue stored for more than 24 hours after dissection. The Krebs solution consisted of 118.4 mM NaCl, 4.7 mM KCl, 1.2 mM MgSO4, 1.2 mM KH2PO4, 1.25 mM CaCl2, 24.9 mM NaHCO3, and 11.1 mM glucose.
(§2) Before setting a wire myography experiment, the remaining loose connective tissue was meticulously removed from the rectal vessels. The internal diameter of sheep isolated rectal artery and vein was 450-650 μm and 500-1000 μm, respectively. Each 5-mm ring segment of the ‘clean’ vessels was then suspended between two 200-μm wire supports in an organ bath containing 20 ml Krebs-Henseleit buffer solution. The upper supporting wire was attached to an isometric force transducer, while the lower wire was fixed steadily to a clamped glass rod. The bath solution was maintained at 37° C., and continuously gassed with 95% O2 and 5% CO2. Isometric tension was continuously recorded using a PowerLab 4/25 via QUAD Bridge amplifier (ADInstruments, Inc, Australia).
(§3) After a 10-minute equilibration period, an initial tension of 8 gram weight (g wt) was gradually applied for an arterial segment and left to relax for 30 minutes. The final tension of SRA varied between 1.0 g wt and 2.8 g wt. For a venous segment, an initial tension of 1 g wt was applied and, 10 minutes later, the resting tension was finally re-adjusted to reach a tension of 0.5 g wt. Then the vein was left to relax for further 20 minutes. The final tension of SRV ranged from 0.08 to 0.25 g wt. Once the vascular segments were fully settled, the tissues were tested for contractile activity with 60 mM KCl on three occasions. The vascular contraction was allowed to reach maximum, which generally took about 1-4 minutes. Each KCl challenge was followed by two washouts of 37° C. Krebs solution and the tissues were allowed to rest for 20 minutes between the challenges. The maximum contraction (tension) produced by the third administration of 60 mM KCl was used as a reference contraction to which subsequent responses were compared. After the final (3rd) KCl challenge, the tissues were washed and left for 60 minutes before α-adrenoceptor agonist was administrated. To construct an agonist concentration-response curves (CRC), 0.3-0.4 log 10 increments of agonist solution was added e.g. at the agonist concentration of 100 nM, 200 nM, 500 nM, 1 μM, 2 μM, 5 μM, and so on. Each response was allowed to reach equilibrium or plateau before the next dose of agonist was added. The maximal response to the agonist was considered when no further increase in response occurred upon the addition of two or more consecutive doses of agonist.
(§4) In the case of the noradrenaline study, 10 μM cocaine was added into the organ bath 40 minutes prior to the administration of noradrenaline for inhibiting the uptake of noradrenaline by neural tissue within the vascular wall (re-uptake 1) (Westfall & Westfall, 2006 In Goodman & Gilman's the Pharmacological Basis of Therapeutics. eds Brunton, L. L., Lazo, J. S. & Paker, K. L. pp. 137-181. New York: McGraw Hill). Regarding KCl-induced vasoconstriction, the CRC was generated by the contractile response to 6 mM increments of KCl solution, starting from 0 mM to 60 mM.
(§5) Consecutive CRCs were generated to each agonist, separated by 60 minutes, and if there was no difference in the maximum response (Emax) and pEC50 (defined as the negative logarithm of the concentration required to produce 50% of the maximum response) then a paired CRC protocol was used throughout. […]

The test system of assay [2] is sheep isolated rectal vein. As to the kind of experiment: Wire myography, sheep isolated rectal vein (SRV). The protocol: as §1, §2, §3, §4, §5
Assay [3] deals with human isolated mesenteric vein. In words: Wire myography, human isolated mesenteric (colonic/rectal) vein (HMV). The settings on record: for EC50: Homo sapiens. An excerpt: After obtaining approval from the local research ethics committee (Reference number: 05/Q2403/171) and having written consent from the patient, human mesenteric (colonic or rectal) vessels were collected from patients who underwent colectomy and/or proctectomy at the Division of Gastrointestinal Surgery, Queen's Medical Centre, University of Nottingham, UK, between August 2009 and March 2010. Patients with a history of previous abdominal/pelvic radiotherapy, and patients with endocrine tumours or concomitant intraabdominal infection were excluded from this study. In an operating room, the mesentery containing the required segment of blood vessels was dissected from the whole surgical specimen immediately after it was removed from a patient. The tissue was then kept in a 100-ml pot containing pre-oxygenated Krebs-Henseleit buffer solution maintained at 4° C. until used. No experiments were conducted on tissue stored for more than 12 hours after dissection. The Krebs solution consisted of 118.4 mM NaCl, 4.7 mM KCl, 1.2 mM MgSO4, 1.2 mM KH2PO4, 1.25 mM CaCl2, 24.9 mM NaHCO3, and 11.1 mM glucose.
Before setting a wire myography experiment, human mesenteric (colonic/rectal) vessels were meticulously dissected from the surrounding mesenteric fatty tissue. The ‘clean’ vessel was then divided into 5-mm ring segments. Generally, the internal diameter of vessels ranged between 400-1000 μm for human mesenteric artery (HMA) and 500-1200 μm for human mesenteric vein (HMV). Each 5-mm ring segment was suspended between two 200-μm wire supports in an organ bath containing 20 ml Krebs-Henseleit buffer solution. The contractile study of human mesenteric vessels was then set in the similar manner of the previous study on sheep isolated rectal vessels.
After a 20-minute equilibration period, an initial resting tension of 8 and 1 gram weight (g wt) was gradually applied to arterial and venous ring segments, respectively, and left to relax for 30 minutes. The final resting tension varied between 1.8 g wt and 3.2 g wt for HMA, and between 0.07 g wt and 0.35 g wt for HMV. Once the vascular segments were fully settled, they were tested for contractile activity with 60 mM KCl three occasions, and an agonist concentration-response curves (CRC) was then reconstructed after the vessels were left to equilibrate for 60 minutes as previously described for sheep rectal vessels. […] In the case of noradrenaline study, 10 μM cocaine was added into the organ bath 40 minutes prior to the administration of noradrenaline for inhibiting the uptake of noradrenaline by neural tissue within the vascular wall (re-uptake 1) (Westfall & Westfall, 2006 In Goodman & Gilman's the Pharmacological Basis of Therapeutics. eds Brunton, L. L., Lazo, J. S. & Paker, K. L. pp. 137-181. New York: McGraw Hill).
Although it appeared that the CRCs of several vasoconstrictors were reproducible (no significant change in maximum response and agonist potency) in human mesenteric vessels, a single CRC, paired segment approach was adopted throughout the study of human blood vessels. This was due to a desire to limit the time of tissue storage and the ease of tissue preparation. The single CRC, paired segment approach involves the generation of only one agonist CRC per tissue. The maximum response (Emax) and pEC50 (defined as the negative logarithm of the concentration required to produce 50% of the maximum response) of each vascular segment were compared to those of other vascular segments (adjacent segments from the same patient, or other segments from different patients).
If the vessel had spontaneous and periodic contraction after the administration of S(−)-BayK8644—which occurred in 70% of HMA and 80% of HMV, the effect of agonist would be considered when there was an increase in the frequency of contraction as well as a rise in the baseline of vascular tone.
The selective α1-adrenoceptor antagonist prazosin and selective α2-adrenoceptor antagonist RX811059 were used in this study. […]

The mark [4] stands for this setting: with 10 nM prazosin and 30 nM RX811059.
[5] abbreviates: Ovis aries, SRV, agonist alone (control).

For `NCCc1c[nH]c2ccc(O)cc12` [5-HT, 5-hydroxytryptamine], the “contractile response” value in assay [1] (SRA) and in assay [2] (SRV) was “concentration-dependent contractions” throughout.

On to `[Cl-].[K+]` [KCl], for which the “contractile response” value in assay [1] (SRA) is on record as “sustained concentration-dependent contraction”; in assay [2] (SRV) it was “concentration-dependent contractions”. For the same compound, the “mean contraction to 60 mM KCl” value was 3.14±0.09 g wt in assay [1] (SRA, n=119) and 1.18±0.05 g wt in assay [2] (SRV, n=128).

Take `COc1ccc(OC)c(C(O)C(C)N)c1` [L-erythro methoxamine]: the “contractile response” value in assay [1] (SRA) and in assay [2] (SRV) was “concentration-dependent contractions” each time. Moreover, the “maximum response as fraction of that to noradrenaline” value in assay [1] (SRA and SRV) is given as “one-third”. The arterioselectivity in assay [1] (sheep rectal vessels, artery vs vein) is recorded as 3 fold.

For `CCOC1(C2=NCCN2)COc2ccccc2O1` (centres unmarked) [RX811059, 2-(2-ethoxy-1,4-benzodioxan-2-yl)-2-imidazoline], the “effect on the noradrenaline CRC” value in assay [1] (SRA, prazosin 0.4-10 nM, RX811059 30 nM) is reported as “no change”. The “effect on potency of noradrenaline” value in assay [3] (10 nM prazosin, 30 nM RX811059) was “significantly reduced the potency of noradrenaline”. Also, the “parallel rightward shift of CRC to guanfacine” value in assay [3] (30 nM) is listed as 2 fold. The Kb in assay [2] (Ovis aries, SRV, 10 nM prazosin / 30 nM RX811059 against noradrenaline) is 13.8 nM. Further, the pKB in assay [2] (SRV, 10 nM prazosin / 30 nM RX811059 against noradrenaline) is recorded as approximately 7.9. For the same compound, in assay [2] (SRV, 30 nM RX811059 added to 10 nM prazosin), the “further rightward shift of the CRC for noradrenaline” value was 1.6 fold. In addition, the “rightward shift of the CRC for noradrenaline” value in assay [2] (SRV, prazosin 10 nM, RX811059 30 nM) amounted to 3 fold.

Regarding `COc1ccc(-c2cc(=O)c3c(O)cc(O[C@@H]4O[C@H](CO[C@@H]5O[C@@H](C)[C@H](O)[C@@H](O)[C@H]5O)[C@@H](O)[C@H](O)[C@H]4O)cc3o2)cc1O` [diosmin, 3′,5,7-trihydroxy-4′-methoxyflavone 7-rutinoside], the “spontaneous contraction” value in assay [1] is listed as “no spontaneous contraction”.

For the compound `N=C(N)NC(=O)Cc1c(Cl)cccc1Cl` [guanfacine], the EC50 in assay [1] (Ovis aries, SRA, agonist alone) was 794 nM; in assay [3] (control), 2240 nM; in assay [3] (with 10 nM prazosin), 2450 nM; in assay [3] (setting [4]), 6460 nM; in assay [3] (with 30 nM RX811059), 5250 nM; in assay [2] (setting [5]) it was 398 nM. Moreover, the EC50 in assay [2] (Ovis aries, SRV, in the presence of 10 nM prazosin and 30 nM RX811059) is 912 nM; in assay [2] (Ovis aries, SRV, in the presence of 1 μM S(−)-BayK8644), 229 nM. Moreover, the Emax in assay [1] (Ovis aries, SRA, read-out: maximum response relative to maximum response to noradrenaline) is approximately 20%; in assay [3] (control), 31.4±4.1 percentage of the contraction; in assay [3] (with 10 nM prazosin), 18.4±4.1 percentage of the contraction; in assay [3] (setting [4]), 20.3±8.5 percentage of the contraction; in assay [3] (with 30 nM RX811059) it was 33.0±4.1 percentage of the contraction; in assay [2] (Ovis aries, SRV, read-out: maximum response relative to maximum response to noradrenaline) it was 45%. For the same compound, the Emax in assay [2] (SRV, agonist alone (control)) was 54.7±8.1 percentage of the contraction and 37.0±6.6 percentage of the contraction; in assay [2] (SRV, in the presence of 10 nM prazosin and 30 nM RX811059), 31.3±4.2 percentage of the contraction; in assay [2] (SRV, in the presence of 1 μM S(−)-BayK8644) it was 72.8±9.0 percentage of the contraction. In addition, the “contractile response” value in assay [1] (SRA) and in assay [2] (SRV) was “concentration-dependent contractions” in each case. For the same compound, the pEC50 in assay [2] (SRV, agonist alone (control)) was 6.58±0.07 and 6.48±0.11.

`O=c1c(O)c(-c2cc(O)c(O)c(O)c2)oc2cc(O)cc(O)c12` [myricetin, 3,3′,4′,5,5′,7-hesahydroxyflavone]: the “spontaneous contraction” value in assay [1] is given as “no spontaneous contraction”.

For the compound `NC[C@H](O)c1ccc(O)c(O)c1` [noradrenaline], the “contractile response” value in assay [1] (SRA) and in assay [2] (SRV) was “concentration-dependent contractions” each time. Besides, the EC50 in assay [2] (setting [5]) is 389 nM; in assay [2] (Ovis aries, SRV, in the presence of 30 nM RX811059), 1260 nM. This compound displayed a venoselectivity in assay [2] (sheep rectal vessels, vein vs artery) of 4 fold.

As a reminder, the pKB is −log10 of the KB, conventionally taken in molar units. Broadly, the EC50 is the midpoint of the concentration-response curve. Broadly, the pEC50 is the EC50 on a negative log10 scale, so that one unit is a factor of ten.
